Experimental data from patent US6083922A (priority 1997, dated 2000).
Converted amounts (≈) assume the structure as drawn. “And” between values parts separate entries of the source, which are not always exact repeats. Equal entries are not always repeated. Where two headings read alike, the source gives them in different places.

Key:
[1] = test system: M. tuberculosis H37Rv(lux); test: Killing curve assay; assay type: cell-based, Mycobacterium tuberculosis
[2] = Ultrasonic nebulizer delivery of tobramycin, effect of saline dilution (Example 2); conditions: for aerosolized output of tobramycin, MEAN: UltraAire, 60 mg/mL, 5 mL, 10 minutes
Protocol: This example describes testing performed to determine the effect of normal and quarter strength diluted saline on the aerosolization of tobramycin and on the amount of drug delivered over a ten-minute period.
To test output from a hand-held portable ultrasonic nebulizer, an UltraAirs by Omron was used. This ultrasonic nebulizer has a reusable medication cup that is placed over the ultrasonic crystal. […] After 10 minutes nebulization run, the cups were reweighed. The aerosolized output of tobramycin was determined from the difference between weight before and after the nebulization. Each solute was tested 14 times.

[3] = cited from earlier work
[4] = test system: M. tuberculosis; test: Minimal inhibitory / bactericidal concentration of tobramycin, general statements; design: species or system Mycobacterium tuberculosis
[5] = assay type: physicochemical
[6] = test system: P. aeruginosa; conditions: aerosolized 600 mg tid, cited from earlier work
[7] = Comparative characteristics of nebulizers delivering tobramycin
Text: Both ultrasonic and jet nebulizers were studied.
An in vitro comparative study evaluated a variety of commercially available jet nebulizers, including among others, the Acorn II® by Marquest, T-Updraft® by Hudson, Sidestream® by Medicaid, and Pari LC® by Pari. The PulmoAide® compressor was chosen because of its reliability and widespread use.

[8] = FEV1 change following aerosol administration (Example 5); assay type: in vivo, human; conditions: individual subjects, 300 mg, 30 min from completion
[9] = clinical; assay type: in vivo, human; conditions: for Sputum Tobramycin Concentrations: individual subjects, 300 mg in 5 mL 1/4 NS
Protocol: (§1) The doses were separated by at least 2 days and not more than 5 days. Peak serum and sputum concentrations were assessed and results are seen in Tables 10 and 11.

[10] = test system: Drug-Sensitive Strains of M. tuberculosis; test: microbe, parasite or virus in culture; assay type: cell-based; conditions: Mycobacterium tuberculosis
[11] = Serum tobramycin concentrations following aerosol administration (Example 5); assay type: in vivo, human; conditions: for Serum Tobramycin: individual subjects
Protocol: as §1

[12] = Randomized cross-over study of nebulizers, peak sputum tobramycin
Text: A randomized, cross-over study compared the ability of several nebulizers to deliver tobramycin by measuring peak sputum tobramycin concentrations in samples collected ten minutes after completion of the aerosol dose.

NNC(=O)c1ccncc1 [isoniazid]
persistence of bactericidal activity ([1]; FIG. 4): only temporary
day growth of the bacteria resumed ([1]; isoniazid 0.06 μg/mL): 4 days
day of initial sharp killing ([1]; isoniazid 0.06 μg/mL): 4 days
day growth of the bacteria resumed ([1]; isoniazid 0.25 μg/mL): 7 days
day of initial sharp killing ([1]; isoniazid 0.25 μg/mL): 1 days

NC[C@H]1O[C@H](O[C@H]2[C@H](O)[C@@H](O[C@H]3O[C@H](CO)[C@@H](O)[C@H](N)[C@H]3O)[C@H](N)C[C@@H]2N)[C@H](N)C[C@@H]1O [tobramycin]
amount of tobramycin delivered ([2]; 1/4 diluted saline versus full strength nondiluted saline): Higher amount of tobramycin was delivered
aerosolized output of tobramycin, MEAN ([2]; diluted 0.22% NS): 4.071
aerosolized output of tobramycin, MEAN ([2]; nondiluted 0.9% NS): 3.636
maximum safe concentration in the serum [3]: 8 to 10 µg/mL
recommended peak therapeutic serum concentrations [3]: 8 to 10 µg/mL
MBC ([4]; Mycobacterium tuberculosis, in the lungs and sputum, read-out: concentration found to be bactericidal): ≥ 8 µg/mL
MIC ([4]; Mycobacterium tuberculosis, read-out: lowest systemic minimal inhibitory concentration): ~8 µg/mL (≈ 17.1 µM)
MIC ([4]; Mycobacterium tuberculosis, systemic administration, read-out: minimal inhibitory concentration which would need to be present in the systemic circulation): 800 to 1000 µg/mL (≈ 1710 to 2140 µM)
sputum concentrations providing bactericidal activity, in multiples of MIC ([4]; toward M. tuberculosis): 10-100 times MIC
color of the solution ([5]; 60 mg/mL, 40° C., pH 7.0, after 35 days): yellowing of the solution
degradation of tobramycin ([5]; pH greater than 7.0): degradation of tobramycin occurs
time for which growth is prevented ([1]; 4 μg/mL): about eight
day at which growth is seen to be inhibited ([1]; 8 μg/mL): 7 days
day at which 2-log reduction is reached ([1]; 16 μg/mL): four
bactericidal activity compared to growth control ([1]; 1-2 μg/mL): bactericidal activity decreasing the count of M. tuberculosis
reduction of M. tuberculosis counts in vitro ([1]; 8 and 16 μg/mL): more than 2 log
activity against M. tuberculosis H37Rv in vitro ([1]; FIG. 4): potent activity
persistence of bactericidal activity ([1]; FIG. 4): continuous decrease and inhibition of M. tuberculosis growth
count of Mycobacterium tuberculosis after treatment ([1]; tobramycin 8 and 16 μg/mL, decreased from 10^6): about 10^2 CFU
spirometry ([6]; 71 CF patients): improved spirometry
sputum density of P. aeruginosa ([6]; 71 CF patients): significant reduction in sputum density of P. aeruginosa
safety and efficacy in CF patients [6]: both safe and efficacious
MMAD ([7]; DeVilbiss 99, 20 mg/mL in 1/2 NS): 4-5 microns
Time to Nebulize ([7]; DeVilbiss 99, 20 mg/mL in 1/2 NS, 30 mL): 10 to 12 min
Drug Dose/mL ([7]; DeVilbiss 99, 20 mg/mL in 1/2 NS, total dose 600 mg): 33 ± 1.8 mg
tobramycin delivered ([7]; DeVilbiss 99, 600 mg): 33 mg/mL
particle size ([7]; Pari LC): 4.5 μ
particle sizes ([7]; Pari LC Plus): 3.3 μ
MMAD ([7]; Pari LC, 60 mg/mL in 1/4 NS): 4-5 microns
Time to Nebulize ([7]; Pari LC, 60 mg/mL in 1/4 NS, 5 mL): 10 min
Drug Dose/mL ([7]; Pari LC, 60 mg/mL in 1/4 NS, total dose 300 mg): 29 ± 5 mg
particle size output ([7]; Sidestream): 2.2 μ
MMAD ([7]; Sidestream, 60 mg/mL in 1/4 NS): ~ 2.2 microns
Time to Nebulize ([7]; Sidestream, 60 mg/mL in 1/4 NS, 5 mL, time to sputtering of jet): ~ 13 minutes
Drug Dose/mL ([7]; Sidestream, 60 mg/mL in 1/4 NS, total dose 300 mg): 30 ± 1.8 mg
tobramycin delivered to the airways ([7]; all three nebulizers): about 30 mg/mL
± % change FEV1 ([8]; Pari LC): -1.2% and 1.2% and -0.6% and -2% and -5%
± % change FEV1 ([8]; Sidestream): -2.2% and 0.0% and -7.6% and -1%
concentration at 10 min ([9]; human, sputum, inhaled or intranasal, mean, Pari LC, 300 mg, 10 min): 396000 ± 677000 ng/g
Sputum Tobramycin Concentrations ([9]; Pari LC, 10 min from completion, 10 min): 1595.9 μg/gm and 764.2 μg/gm and 133.7 μg/gm and 166.5 μg/gm and 1395.6 μg/gm
Sputum Tobramycin Concentrations ([9]; Pari LC, 1 hour, 60 min): 481.8 μg/gm and 231.8 μg/gm and 110.7 μg/gm and 32.4 μg/gm and 186.8 μg/gm
Sputum Tobramycin Concentrations ([9]; Pari LC, 2 hours, 120 min): 416.8 μg/gm and 52.8 μg/gm and 92.5 μg/gm and 60.5 μg/gm and 131.8 μg/gm
Sputum Tobramycin Concentrations ([9]; Pari LC, baseline): bql (<20 μg/gm)
Sputum Tobramycin Concentrations ([9]; Sidestream, 10 min from completion, 10 min): 792.8 μg/gm and 460.6 μg/gm and 162.5 μg/gm and 84.2 μg/gm and 1135.9 μg/gm
Sputum Tobramycin Concentrations ([9]; Sidestream, 1 hour, 60 min): 1026.7 μg/gm and 23.1 μg/gm and 180.5 μg/gm and 36.6 μg/gm and 488.2 μg/gm
Sputum Tobramycin Concentrations ([9]; Sidestream, 2 hours, 120 min): 163 μg/gm and 49.1 μg/gm and 58.1 μg/gm and 57.5 μg/gm and 331.5 μg/gm
Sputum Tobramycin Concentrations ([9]; Sidestream, baseline): bql (<20 μg/gm) and bqi
Sputum Tobramycin Concentrations, Mean/Std Dev ([9]; mean, Pari LC, 300 mg, 1 hour): 186.8 μg/gm
Sputum Tobramycin Concentrations, Mean/Std Dev ([9]; mean, Pari LC, 300 mg, 2 hours): 131.8 μg/gm
Sputum Tobramycin Concentrations, Mean/Std Dev ([9]; mean, Pari LC, baseline): bql (<20 μg/gm)
Sputum Tobramycin Concentrations, Mean/Std Dev ([9]; mean, Sidestream, 300 mg, 10 min): 527.21 ± 585.9 μg/gm
Sputum Tobramycin Concentrations, Mean/Std Dev ([9]; mean, Sidestream, 300 mg, 1 hour): 488.2 μg/gm
Sputum Tobramycin Concentrations, Mean/Std Dev ([9]; mean, Sidestream, 300 mg, 2 hours): 331.5 μg/gm
Sputum Tobramycin Concentrations, Mean/Std Dev ([9]; mean, Sidestream, baseline): bql (<20 μg/gm)
MIC ([10]; H37RV, read-out: Tobramycin MIC, strain H37RV): 4 µg/mL (≈ 8.56 µM)
MIC ([10]; all tested drug sensitive strains, read-out: minimal inhibitory concentration): 4 to 8 µg/mL (≈ 8.56 to 17.1 µM)
MIC ([10]; read-out: Tobramycin MIC, strain TN675): 4 µg/mL (≈ 8.56 µM)
MIC ([10]; read-out: Tobramycin MIC, strain TN994): 4 µg/mL (≈ 8.56 µM)
MIC ([10]; read-out: Tobramycin MIC, strain TN1008): 4 µg/mL (≈ 8.56 µM)
MIC ([10]; read-out: Tobramycin MIC, strain TN1039): 4 µg/mL (≈ 8.56 µM)
MIC ([10]; read-out: Tobramycin MIC, strain TN2351): 8 µg/mL (≈ 17.1 µM)
MIC ([10]; read-out: Tobramycin MIC, strain TN2524): 4 µg/mL (≈ 8.56 µM)
MIC ([10]; read-out: Tobramycin MIC, strain TN3183): 4 µg/mL (≈ 8.56 µM)
MIC ([10]; read-out: Tobramycin MIC, strain TN3979): 4 µg/mL (≈ 8.56 µM)
MIC ([10]; read-out: Tobramycin MIC, strain TN4259): 4 µg/mL (≈ 8.56 µM)
safety of the dosage ([11]; 300 mg aerosol, because of serum concentrations): extremely safe
serum concentrations ([11]; 300 mg in 5 mL of 60 mg/mL in 1/4 NS): < 1600 ng/mL
Serum Tobramycin ([11]; Pari LC, 300 mg in 5 mL 1/4 NS, 1 hour from completion, 60 min): 0.2 µg/mL and 0.5 µg/mL and 0.6 µg/mL and 0.8 µg/mL
Serum Tobramycin ([11]; Pari LC, 300 mg in 5 mL 1/4 NS, 2 hours from completion, 120 min): 0.3 µg/mL and 0.4 µg/mL and 0.5 µg/mL and 0.7 µg/mL
Serum Tobramycin ([11]; Pari LC, 300 mg, baseline): not detected
Serum Tobramycin ([11]; Sidestream, 300 mg in 5 mL 1/4 NS, 1 hour from completion, 60 min): 0.3 µg/mL and 0.2 µg/mL and 0.9 µg/mL and 1.2 µg/mL and 1.6 µg/mL
Serum Tobramycin ([11]; Sidestream, 300 mg in 5 mL 1/4 NS, 2 hours from completion, 120 min): 0.2 µg/mL and 0.8 µg/mL and 1.0 µg/mL
Serum Tobramycin ([11]; Sidestream, 300 mg, baseline): not detected
time to complete nebulization of all 5 mL ([12]; Pari LC, 60 mg/mL in 1/4 NS): about ten
mass median aerodynamic diameter ([12]; Pari LC, 60 mg/mL in 5 mL 1/4 NS): about 3.3 μm
Cmax at 10 min ([12]; human, in vivo, inhaled or intranasal, 300 mg): ~679000 ng/g
